Values after ≈ are worked out from the molar mass of the structure shown. Like-named read-outs stand apart in the source and are kept apart here.
Legend:
Test in all cases: Minimal inhibitory concentration, nutrient agar plate
Escherichia coli H = type: cell-based
E. coli JC-2 = type: cell-based; conditions: Escherichia coli
E. coli 377 = type: cell-based, Escherichia coli
E. coli 73 = type: cell-based, Escherichia coli
[1] = tested on: Serratia marsescens 13880; type: cell-based
Klebsiella pneumoniae = type: cell-based
Klebsiella sp. 363 = type: cell-based
Enterobacter cloacae 233 = type: cell-based
Proteus mirabilis PR-4 = type: cell-based
P. morganii No. 9 = type: cell-based, Proteus morganii; conditions: Morganella morganii
P. vulgaris No. 3 = type: cell-based; conditions: Proteus vulgaris
P. vulgaris CN-329 = type: cell-based; conditions: Proteus vulgaris
[2] = tested on: Pseudomonas aeruginosa Denken; type: cell-based
Ps. aeruginosa 25619 = type: cell-based, Pseudomonas aeruginosa
Ps. aeruginosa 24 = type: cell-based, Pseudomonas aeruginosa
[3] = as sodium salt, inoculum size 10^8, pH 7.0, read-out: Minimal inhibitory concentration
[4] = JC2, as sodium salt, inoculum size 10^8, pH 7.0, read-out: Minimal inhibitory concentration
[5] = Escherichia coli, 377, as sodium salt, inoculum size 10^8, pH 7.0, read-out: Minimal inhibitory concentration
[6] = Escherichia coli, 73, as sodium salt, inoculum size 10^8, pH 7.0, read-out: Minimal inhibitory concentration
[7] = Serratia, 13880, as sodium salt, inoculum size 10^8, pH 7.0, read-out: Minimal inhibitory concentration
[8] = SP.363, as sodium salt, inoculum size 10^8, pH 7.0, read-out: Minimal inhibitory concentration
[9] = Enterobacter cloacae, 233, as sodium salt, inoculum size 10^8, pH 7.0, read-out: Minimal inhibitory concentration
[10] = PR4, as sodium salt, inoculum size 10^8, pH 7.0, read-out: Minimal inhibitory concentration
[11] = NO.9, as sodium salt, inoculum size 10^8, pH 7.0, read-out: Minimal inhibitory concentration
[12] = NO.3, as sodium salt, inoculum size 10^8, pH 7.0, read-out: Minimal inhibitory concentration
[13] = CN329, as sodium salt, inoculum size 10^8, pH 7.0, read-out: Minimal inhibitory concentration
[14] = Pseudomonas aeruginosa, 25619, as sodium salt, inoculum size 10^8, pH 7.0, read-out: Minimal inhibitory concentration
[15] = Pseudomonas aeruginosa, 24, as sodium salt, inoculum size 10^8, pH 7.0, read-out: Minimal inhibitory concentration
[16] = pH 7, read-out: Minimal inhibitory concentration

Compound | MIC (Escherichia coli H; [3]) | MIC (E. coli JC-2; [4]) | MIC (E. coli 377; [5]) | MIC (E. coli 73; [6]) | MIC [1, 7] | MIC (Klebsiella pneumoniae; [3]) | MIC (Klebsiella sp. 363; [8]) | MIC (Enterobacter cloacae 233; [9]) | MIC (Proteus mirabilis PR-4; [10]) | MIC (P. morganii No. 9; [11]) | MIC (P. vulgaris No. 3; [12]) | MIC (P. vulgaris CN-329; [13]) | MIC [2, 3] | MIC (Ps. aeruginosa 25619; [14]) | MIC (Ps. aeruginosa 24; [15]) | also measured
Cn1nnnc1SCC1=C(C(=O)O)N2C(=O)[C@@H](NC(=O)C(C(=O)O)c3ccc(O)cc3)[C@H]2OC1 (stereo partly drawn) [Example III-6, 7β-(α-p-hydroxyphenyl-α-carboxyacetamido)-3-(1-methyltetrazol-5-yl)thiomethyl-1-oxadethia-3-cephem-4-carboxylic acid] | 0.2 µg/mL | 0.39 µg/mL | 0.39 µg/mL | > 100 µg/mL | 0.78 µg/mL | 0.78 µg/mL | > 100 µg/mL | 0.78 µg/mL | 0.78 µg/mL | 0.78 µg/mL | > 100 µg/mL | > 100 µg/mL | > 100 µg/mL | 6.25 µg/mL | > 100 µg/mL | –
CO[C@@]1(NC(=O)C(C(=O)O)c2ccsc2)C(=O)N2C(C(=O)O)=C(CSc3nnnn3C)CO[C@@H]21 (stereo partly drawn) [III-19, 7β-[α-(3-thienyl)-α-carboxyacetamido]-7α-methoxy-3-(1-methyltetrazol-5-yl)thiomethyl-1-oxadethia-3-cephem-4-carboxylic acid] | 0.025 µg/mL | 0.05 µg/mL | 0.1 µg/mL | 0.2 µg/mL | 0.39 µg/mL | 0.2 µg/mL | 0.05 µg/mL | 0.1 µg/mL | 0.2 µg/mL | 0.1 µg/mL | 0.2 µg/mL | 0.1 µg/mL | 100 µg/mL | 12.5 µg/mL | 50 µg/mL | –
CO[C@@]1(NC(=O)C(C(=O)O)c2ccc(OC(=O)NC(N)=O)cc2)C(=O)N2C(C(=O)O)=C(CSc3nnnn3C)CO[C@@H]21 (stereo partly drawn) [III-27, 7β-(α-p-ureidocarbonyloxyphenyl-α-carboxyacetamido)-7α-methoxy-3-(1-methyltetrazol-5-yl)thiomethyl--oxadethia-3-cephem-4-carboxylic acid] | – | – | – | – | – | – | – | – | – | – | – | – | – | – | – | MIC (Escherichia coli H; [16]): 0.05 µg/mL (≈ 0.0824 µM); MIC (E. coli JC-2; JC2, pH 7, read-out: Minimal inhibitory concentration): 0.2 µg/mL (≈ 0.33 µM); MIC (E. coli 377; Escherichia coli, 377, pH 7, read-out: Minimal inhibitory concentration): 0.78 µg/mL (≈ 1.29 µM); MIC (E. coli 73; Escherichia coli, 73, pH 7, read-out: Minimal inhibitory concentration): 0.78 µg/mL (≈ 1.29 µM); MIC ([1]; Serratia, 13880, pH 7, read-out: Minimal inhibitory concentration): 3.13 µg/mL (≈ 5.16 µM); MIC (Klebsiella pneumoniae; [16]): 0.39 µg/mL (≈ 0.643 µM); MIC (Klebsiella sp. 363; SP.363, pH 7, read-out: Minimal inhibitory concentration): 0.2 µg/mL (≈ 0.33 µM); MIC (Enterobacter cloacae 233; Enterobacter cloacae, 233, pH 7, read-out: Minimal inhibitory concentration): 0.78 µg/mL (≈ 1.29 µM); MIC (Proteus mirabilis PR-4; PR4, pH 7, read-out: Minimal inhibitory concentration): 0.2 µg/mL (≈ 0.33 µM); MIC (P. morganii No. 9; NO.9, pH 7, read-out: Minimal inhibitory concentration): 0.2 µg/mL (≈ 0.33 µM); MIC (P. vulgaris No. 3; NO.3, pH 7, read-out: Minimal inhibitory concentration): 0.39 µg/mL (≈ 0.643 µM); MIC (P. vulgaris CN-329; CN329, pH 7, read-out: Minimal inhibitory concentration): 0.2 µg/mL (≈ 0.33 µM); MIC [2, 16]: > 100 µg/mL; MIC (Ps. aeruginosa 25619; Pseudomonas aeruginosa, 25619, pH 7, read-out: Minimal inhibitory concentration): 12.5 µg/mL (≈ 20.6 µM); MIC (Ps. aeruginosa 24; Pseudomonas aeruginosa, 24, pH 7, read-out: Minimal inhibitory concentration): 50 µg/mL (≈ 82.4 µM)
Cc1nnc(SCC2=C(C(=O)O)N3C(=O)[C@@H](NC(=O)Cn4cnnn4)[C@H]3SC2)s1 [Cefazolin, reference compound] | 1.6 µg/mL | 3.2 µg/mL | 100 µg/mL | > 100 µg/mL | > 100 µg/mL | 3.2 µg/mL | > 100 µg/mL | > 100 µg/mL | 6.2 µg/mL | > 100 µg/mL | > 100 µg/mL | > 100 µg/mL | > 100 µg/mL | > 100 µg/mL | > 100 µg/mL | –
CO[C@@]1(NC(=O)C(C(=O)O)c2ccccc2)C(=O)N2C(C(=O)O)=C(CSc3nnnn3C)CO[C@@H]21 (stereo partly drawn) [III-13, 7β-(α-carboxy-α-phenylacetamido)-7α-methoxy-3-(1-methyltetrazol-5-yl)thiomethyl-1-oxadethia-3-cephem-4-carboxylic acid] | 0.025 µg/mL | 0.01 µg/mL | 0.2 µg/mL | 0.39 µg/mL | 0.39 µg/mL | 0.1 µg/mL | 0.05 µg/mL | 0.2 µg/mL | 0.2 µg/mL | 0.1 µg/mL | 0.2 µg/mL | 0.1 µg/mL | 100 µg/mL | 12.5 µg/mL | 50 µg/mL | –
CO[C@@]1(NC(=O)C(C(=O)O)c2ccc(OC(N)=O)cc2)C(=O)N2C(C(=O)O)=C(CSc3nnnn3C)CO[C@@H]21 (stereo partly drawn) [Example III-25, 7β-(α-p-carbamoyloxyphenyl-α-carboxyacetamido)-7α-methoxy-3-(1-methyltetrazol-5-yl)thiomethyl-1-oxadethia-3-cephem-4-carboxylic acid] | 0.1 µg/mL | 0.39 µg/mL | 0.78 µg/mL | 1.56 µg/mL | 1.56 µg/mL | 0.39 µg/mL | 0.39 µg/mL | 0.78 µg/mL | 0.2 µg/mL | 0.2 µg/mL | 0.39 µg/mL | 0.2 µg/mL | > 100 µg/mL | 25 µg/mL | 100 µg/mL | –
